Reference: patent US20240415832A1 (priority 2021, published 2024)

Columns and labels:
C57BL/6J mice = details: mouse, in vivo
5-HT2A = 5-HT2A (Homo sapiens, UniProt P28223); assay type: binding
D2 = D2 (Homo sapiens, UniProt P14416); assay type: binding
D1 = D1 (Homo sapiens, UniProt P21728); assay type: binding
SERT = SERT (Homo sapiens, UniProt P31645); assay type: binding
C57Bl/6 mice = experiment: Lack of precipitated withdrawal from oxycodone; details: for total withdrawal signs: oxycodone mice

D2, sequence (P14416 1-414 isoform P14416-2): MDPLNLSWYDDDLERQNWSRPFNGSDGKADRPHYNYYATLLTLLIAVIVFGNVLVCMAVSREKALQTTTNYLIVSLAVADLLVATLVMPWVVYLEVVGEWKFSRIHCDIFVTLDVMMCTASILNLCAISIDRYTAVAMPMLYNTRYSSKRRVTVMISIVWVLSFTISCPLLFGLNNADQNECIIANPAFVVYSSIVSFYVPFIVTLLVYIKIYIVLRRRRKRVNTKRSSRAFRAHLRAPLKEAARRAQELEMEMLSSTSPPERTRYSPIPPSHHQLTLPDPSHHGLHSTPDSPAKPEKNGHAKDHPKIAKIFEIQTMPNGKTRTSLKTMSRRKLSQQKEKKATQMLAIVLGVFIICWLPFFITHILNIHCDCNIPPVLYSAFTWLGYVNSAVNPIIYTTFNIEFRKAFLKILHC
5-HT2A, sequence (P28223 whole entry): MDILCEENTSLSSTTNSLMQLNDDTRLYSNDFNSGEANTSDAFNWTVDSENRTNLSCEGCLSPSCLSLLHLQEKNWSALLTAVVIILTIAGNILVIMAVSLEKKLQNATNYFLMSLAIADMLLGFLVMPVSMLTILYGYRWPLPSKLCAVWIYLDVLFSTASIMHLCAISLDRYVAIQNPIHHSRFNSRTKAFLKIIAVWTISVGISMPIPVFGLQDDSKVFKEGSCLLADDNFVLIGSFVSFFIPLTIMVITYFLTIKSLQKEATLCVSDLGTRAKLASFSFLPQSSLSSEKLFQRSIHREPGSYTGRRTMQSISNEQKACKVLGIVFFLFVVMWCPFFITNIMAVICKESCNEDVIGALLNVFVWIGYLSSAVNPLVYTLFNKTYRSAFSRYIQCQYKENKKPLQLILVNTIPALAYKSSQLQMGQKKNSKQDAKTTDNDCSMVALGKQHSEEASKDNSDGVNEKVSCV
D1, sequence (P21728 whole entry): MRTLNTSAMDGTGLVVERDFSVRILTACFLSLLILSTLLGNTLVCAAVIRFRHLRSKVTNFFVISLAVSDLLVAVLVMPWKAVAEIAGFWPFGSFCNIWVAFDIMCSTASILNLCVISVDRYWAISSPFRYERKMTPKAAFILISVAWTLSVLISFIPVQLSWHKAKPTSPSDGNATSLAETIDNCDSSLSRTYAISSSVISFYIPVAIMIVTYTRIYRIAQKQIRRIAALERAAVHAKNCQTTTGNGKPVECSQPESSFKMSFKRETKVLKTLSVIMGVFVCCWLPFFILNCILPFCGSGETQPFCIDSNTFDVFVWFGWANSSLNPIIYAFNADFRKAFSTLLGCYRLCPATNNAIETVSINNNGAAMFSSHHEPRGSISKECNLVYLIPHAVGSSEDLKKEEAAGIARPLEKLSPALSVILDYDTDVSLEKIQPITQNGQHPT
SERT, sequence (P31645 whole entry, species assumed): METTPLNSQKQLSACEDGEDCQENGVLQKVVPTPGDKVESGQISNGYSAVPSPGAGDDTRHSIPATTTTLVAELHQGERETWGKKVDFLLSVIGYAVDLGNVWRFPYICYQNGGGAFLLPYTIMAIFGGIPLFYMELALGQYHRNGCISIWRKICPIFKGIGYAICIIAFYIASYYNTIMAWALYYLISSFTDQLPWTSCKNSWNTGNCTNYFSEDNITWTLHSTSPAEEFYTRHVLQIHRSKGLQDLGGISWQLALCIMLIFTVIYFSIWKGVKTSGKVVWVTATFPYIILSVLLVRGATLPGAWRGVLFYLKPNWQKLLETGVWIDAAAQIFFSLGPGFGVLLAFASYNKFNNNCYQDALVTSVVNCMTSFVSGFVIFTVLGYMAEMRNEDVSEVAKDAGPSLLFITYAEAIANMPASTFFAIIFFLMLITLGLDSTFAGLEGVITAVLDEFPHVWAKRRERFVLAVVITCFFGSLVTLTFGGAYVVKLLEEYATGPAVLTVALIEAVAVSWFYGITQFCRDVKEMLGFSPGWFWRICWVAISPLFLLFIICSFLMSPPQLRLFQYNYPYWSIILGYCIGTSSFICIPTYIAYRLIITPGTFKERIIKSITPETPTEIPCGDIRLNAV

SMILES: C=CCN1CC[C@]23c4c5ccc(O)c4O[C@H]2C(=O)CC[C@@]3(O)[C@H]1C5 [Naloxone]
- Jumps (C57BL/6J mice): 0
- Paw Tremors (C57BL/6J mice): 0.87
- Total Number of Signs (C57BL/6J mice): 2.2
- body weight loss (C57BL/6J mice): 0.5%

SMILES: O=C1CN2c3c(cccc3[C@@H]3CN(CCCc4n[nH]c5cc(F)ccc45)CC[C@@H]32)N1 [Example 2, (6bR,10aS)-8-(3-(6-fluoro-1H-indazol-3-yl)propyl)-6b,7,8,9,10,10a-hexahydro-1H-pyrido[3′,4′:4,5]pyrrolo[1,2,3-de]quinoxalin-2(3H)-one]
- Ki (5-HT2A): 2.6 nM
- Ki (D2): 15 nM
- Ki (D1): 5.2 nM
- Ki (SERT): 540 nM

SMILES: O=C1CN2c3c(cccc3[C@@H]3CN(CCCOc4ccc(F)cc4)CC[C@@H]32)N1 [Example 1, (6bR,10aS)-8-(3-(4-fluorophenoxy)propyl)-6b,7,8,9,10,10a-hexahydro-1H-pyrido[3′,4′:4,5]pyrrolo[1,2,3-de]quinoxalin-2(3H)-one]
- somatic signs or loss of body weight (C57Bl/6 mice; chronic saline, 17.8 mg/kg s.c., relative to vehicle (p>0.05)): does not produce any significant effects
- number of paw tremors or jumps (C57Bl/6 mice; mice chronically administered oxycodone, doses <10 mg/kg s.c., vs vehicle): do not differ from mice administered vehicle
- body weight loss (C57Bl/6 mice; mice receiving oxycodone chronically, <10 mg/kg): does not induce further body weight loss
- total withdrawal signs (C57Bl/6 mice; at 10 mg/kg, p<0.05, mainly wet dog shakes): significantly more total withdrawal signs
- total withdrawal signs (C57Bl/6 mice; escalating doses (3, 10, 17.8 mg/kg s.c.), p<0.0001): induced greater total withdrawal signs

SMILES: O=C1CN2c3c(cccc3[C@@H]3CN(CCCc4noc5cc(F)ccc45)CC[C@@H]32)N1 [Example 3, (6bR,10aS)-8-(3-(6-fluorobenzo[d]isoxazol-3-yl)propyl)-6b,7,8,9,10,10a-hexahydro-1H-pyrido[3′,4′:4,5]pyrrolo[1,2,3-de]quinoxalin-2(3H)-one]
- Ki (5-HT2A): 3.1 nM
- Ki (D2): 84 nM
- Ki (D1): 13 nM
